ChEMBL document CHEMBL1133027, “Novel inhibitors of HIV protease: design, synthesis and biological evaluation of picomolar inhibitors containing cyclic P1/P2 scaffolds” (Bioorg Med Chem Lett, 2000)

What was measured:
MT4 = assay: Compound was evaluated for its antiviral inhibition in MT-4 cell culture; assay type: functional, cell-based; conditions: Homo sapiens
[1] = target: Human immunodeficiency virus type 1 protease (Human immunodeficiency virus 1, UniProt Q72874); assay: Inhibition of HIV protease

Row | SMILES | IC50 (MT4) [nM] | Ki [1] [nM]
1 | CC(C)(C)NC(=O)[C@@H]1C[C@@H]2CCCC[C@@H]2CN1C[C@@H](O)[C@H](Cc1ccccc1)NC(=O)[C@H](CC(N)=O)NC(=O)c1ccc2ccccc2n1 | 20 | 
2 | CC(C)CN(C[C@@H](O)[C@H](Cc1ccccc1)NC(=O)O[C@H]1CCOC1)S(=O)(=O)c1ccc(N)cc1 | 100 | 
3 | O=C(N[C@H]1c2ccccc2C[C@H]1O)[C@H](Cc1ccccc1)C[C@H](O)CN1C(=O)CC[C@@H]1Cc1ccccc1 | > 50000 | 330
4 | O=C(N[C@H]1c2ccccc2C[C@H]1O)[C@H](Cc1ccccc1)C[C@H](O)CN1C(=O)N(Cc2ccccc2)C[C@@H]1Cc1ccccc1 | 300 | 1.2
5 | O=C(N[C@H]1c2ccccc2C[C@H]1O)[C@H](Cc1ccccc1)C[C@H](O)CN1C(=O)[C@@H](Cc2ccccc2)C[C@@H]1Cc1ccccc1 | 300 | 0.05
6 | O=C(N[C@H]1c2ccccc2C[C@H]1O)[C@H](Cc1ccccc1)C[C@H](O)CN1C(=O)[C@H](Cc2ccccc2)C[C@@H]1Cc1ccccc1 |  | > 0.5
7 | O=C(N[C@H]1c2ccccc2C[C@H]1O)[C@H](Cc1ccccc1)C[C@H](O)CN1[C@@H](Cc2ccccc2)CN(Cc2ccccc2)S1(=O)=O | 1500 | 0.8
8 | O=C(N[C@H]1c2ccccc2C[C@H]1O)[C@H](Cc1ccccc1)C[C@@H](O)CN1C(=O)CC[C@@H]1Cc1ccccc1 | > 50000 | 
9 | O=C1N[C@H](Cc2ccccc2)C(=O)[C@H]1Cc1ccccc1 | 300 | 0.05
10 | O=C(N[C@H]1c2ccccc2C[C@H]1O)[C@H](Cc1ccccc1)C[C@H](O)CN1[C@@H](Cc2ccccc2)C[C@H](Cc2ccccc2)S1(=O)=O |  | 16
11 | CC(C)(C)NC(=O)[C@@H]1CN(Cc2cccnc2)CCN1C[C@@H](O)C[C@@H](Cc1ccccc1)C(=O)N[C@H]1c2ccccc2C[C@H]1O | 40 | 
12 | Cc1c(O)cccc1C(=O)N[C@@H](CSc1ccccc1)[C@H](O)CN1C[C@H]2CCCC[C@H]2C[C@H]1C(=O)NC(C)(C)C | 50 | 
13 | CC(C)c1nc(CN(C)C(=O)N[C@H](C(=O)N[C@@H](Cc2ccccc2)C[C@H](O)[C@H](Cc2ccccc2)NC(=O)OCc2cncs2)C(C)C)cs1 [RITONAVIR] | 210 | 
